Biological target: T1, PfTSEN1 (Plasmodium falciparum, UniProt A0A144A1E9)
T1 sequence (A0A144A1E9 1-220): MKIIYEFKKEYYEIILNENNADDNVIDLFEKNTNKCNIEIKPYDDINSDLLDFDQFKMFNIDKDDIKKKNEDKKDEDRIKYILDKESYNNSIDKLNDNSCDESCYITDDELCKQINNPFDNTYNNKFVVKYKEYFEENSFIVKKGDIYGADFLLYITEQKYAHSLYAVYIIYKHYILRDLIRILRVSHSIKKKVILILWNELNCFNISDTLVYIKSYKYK
Assay: microscale thermophoresis
Format: binding

NCCCn1ccc2c1C(=O)c1cccnc1C2=O [TSENi, 1-(3-aminopropyl)-1H-pyrrolo[2,3-f]quinoline-4,9-dione]
Kd: 945 nM

Source: publication doi:10.1101/2024.06.07.597859v1 (biorxiv, 2024)
